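All cell lines were grown in 96-well plates and treated with compound for 48 hours. At the GI50, growth is halved.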 The source made the active and inactive calls. No stated cut-off is given here; in the data, active = GI50 up to about 1.1 µM and inactive = higher.
How the values were obtained:
Assay in all cases: NCI-60 cell line screen, 48 h
UACC-257 = test system: UACC-257
LOX IMVI = test system: LOX IMVI
Malme-3M = test system: Malme-3M
OVCAR-4 = test system: OVCAR-4
RPMI-8226 = test system: RPMI-8226
RXF 393 = test system: RXF 393
HCC 2998 = test system: HCC 2998
CCRF-CEM = test system: CCRF-CEM
SNB-19 = test system: SNB-19
786-0 = test system: 786-0
COLO 205 = test system: COLO 205
KM12 = test system: KM12
HOP-92 = test system: HOP-92
CAKI-1 = test system: CAKI-1
SK-OV-3 = test system: SK-OV-3
T47D = test system: T47D
MDA-MB-435 = test system: MDA-MB-435
NCI/ADR-RES = test system: NCI/ADR-RES

| SMILES | GI50 (UACC-257) | GI50 (LOX IMVI) | GI50 (Malme-3M) | GI50 (OVCAR-4) | GI50 (RPMI-8226) | GI50 (RXF 393) | GI50 (HCC 2998) | GI50 (CCRF-CEM) | GI50 (SNB-19) | GI50 (786-0) | GI50 (COLO 205) | GI50 (KM12) | GI50 (HOP-92) | GI50 (CAKI-1) | GI50 (SK-OV-3) | GI50 (T47D) | GI50 (MDA-MB-435) | GI50 (NCI/ADR-RES) |
| --- | --- | --- | --- | --- | --- | --- | --- | --- | --- | --- | --- | --- | --- | --- | --- | --- | --- | --- |
| CC(C)c1cccc(C(C)C)c1NC(=S)NN=C1C=C(C(C)(C)C)C(=O)C(C(C)(C)C)=C1 | 18.9 µM (inactive) | 18.2 µM (inactive) | 27.3 µM (inactive) | 17.3 µM (inactive) | 27.2 µM (inactive) | 16.7 µM (inactive) | 23.5 µM (inactive) | 22.7 µM (inactive) | 22.3 µM (inactive) | 18.9 µM (inactive) | 20.1 µM (inactive) | – | – | – | – | – | – | – |
| COc1cc2c(cc1OC)-c1cc3cc(OC)c(OC)cc3n1CC2 | 56 µM (inactive) | – | 23.8 µM (inactive) | 22.7 µM (inactive) | 71.8 µM (inactive) | – | 61 µM (inactive) | > 100 µM (inactive) | 25.8 µM (inactive) | 23.4 µM (inactive) | 32.4 µM (inactive) | 38.5 µM (inactive) | 60.3 µM (inactive) | 55.7 µM (inactive) | 30.5 µM (inactive) | – | – | – |
| CNC(=O)CN(CC(=O)NC)C(=O)NC | > 100 µM (inactive) | > 100 µM (inactive) | > 100 µM (inactive) | > 100 µM (inactive) | > 100 µM (inactive) | > 100 µM (inactive) | > 100 µM (inactive) | > 100 µM (inactive) | > 100 µM (inactive) | > 100 µM (inactive) | > 100 µM (inactive) | > 100 µM (inactive) | > 100 µM (inactive) | > 100 µM (inactive) | > 100 µM (inactive) | – | – | – |
| O=C(Oc1c(I)ccccc1=O)c1ccc([N+](=O)[O-])cc1 | 17 µM (inactive) | 19.6 µM (inactive) | 14.6 µM (inactive) | – | 23.2 µM (inactive) | 3.08 µM (inactive) | 23.2 µM (inactive) | 22.5 µM (inactive) | 20.4 µM (inactive) | 26.9 µM (inactive) | 14.7 µM (inactive) | 18.9 µM (inactive) | – | 24.4 µM (inactive) | – | 0.0785 µM (active) | 19.4 µM (inactive) | 40.6 µM (inactive) |
| N#C/N=C(/NCCc1c[nH]c2ccccc12)Oc1ccccc1 | > 100 µM (inactive) | 77.4 µM (inactive) | – | 73.3 µM (inactive) | 37.7 µM (inactive) | > 100 µM (inactive) | 44 µM (inactive) | 21.9 µM (inactive) | 93.5 µM (inactive) | 8.57 µM (inactive) | 59 µM (inactive) | 40.8 µM (inactive) | – | – | > 100 µM (inactive) | – | – | – |
| O=[N+]([O-])c1ccc2c(c1)S(=O)(=O)N1Cc3ccccc3CCN21 | 29.1 µM (inactive) | > 100 µM (inactive) | > 100 µM (inactive) | > 100 µM (inactive) | > 100 µM (inactive) | > 100 µM (inactive) | > 100 µM (inactive) | > 100 µM (inactive) | 35 µM (inactive) | 97.5 µM (inactive) | > 100 µM (inactive) | > 100 µM (inactive) | 62.2 µM (inactive) | > 100 µM (inactive) | – | – | > 100 µM (inactive) | > 100 µM (inactive) |
| N/N=C1\C(=O)N(CCc2ccccc2)C(=O)C1C(=O)NCCc1ccccc1 (stereo unspecified) | > 100 µM (inactive) | > 100 µM (inactive) | > 100 µM (inactive) | – | > 100 µM (inactive) | – | – | > 100 µM (inactive) | > 100 µM (inactive) | > 100 µM (inactive) | – | > 100 µM (inactive) | > 100 µM (inactive) | > 100 µM (inactive) | > 100 µM (inactive) | – | – | – |
| CC1(C)c2ccccc2N2O[C@@H]3C(=O)N(c4ccccc4)C(=O)[C@@H]3C21c1ccccc1 (stereo partly specified) | > 100 µM (inactive) | > 100 µM (inactive) | > 100 µM (inactive) | – | 57.7 µM (inactive) | 14.6 µM (inactive) | > 100 µM (inactive) | 52.8 µM (inactive) | > 100 µM (inactive) | > 100 µM (inactive) | > 100 µM (inactive) | > 100 µM (inactive) | – | > 100 µM (inactive) | > 100 µM (inactive) | – | – | – |

Reference: ChEMBL document CHEMBL1201862, “PubChem BioAssay data set” (2004)
